Results published in patent US9943558B2, “Compositions and methods for treating multi-drug resistant malaria” (Febris Bio-Tech Limited, priority 2011, dated 2018).
≈ marks a conversion by molar mass, not a printed value. Read-outs that look alike come from different tables or passages of the source.

Legend:
[1] = system: P. falciparum drug-sensitive (DS) clone 3D7; test: In vitro growth inhibition IC50, Giemsa-stained smears (Example 1D), clone 3D7; assay type: cell-based; details: Plasmodium falciparum
Description: (§1) The Luo Han Guo general extract (Sample 8) was prepared by extraction of dried Luo Han fruit with hot water as in Example 1A, and then fractionated with EtOAc and n-butanol respectively as in Example 1A to yield 3 fractions corresponding to Samples 5a-7a. Samples 6a-7a also correspond to “compound B” and “compound A” respectively.
(§2) The P. falciparum was cell synchronized by adding 5% of D-sorbitol, and synchronized cells were then spread on culture plates after achieving ring form phase, with an initial infection rate of 1% and PCV at 5%.
(§3) 10 μl active ingredient solution plus 90 μl P. falciparum culture medium were spread on each well.
(§4) Drug-sensitive (DS) clone 3D7 and multi-drug resistant (MDR) clone Dd2 of Plasmodium falciparum, obtained from the Malaria Research and Reference Reagent Resource Centre (MR4), Manassas, Va., USA, were maintained continuously in blood group O+ human erythrocytes and 10% human serum in a gas mixture consisting of 7% CO2, 5% O2 and 88% N2.
(§5) In vitro inhibitory concentration assays. P. falciparum clones 3D7 and Dd2 were maintained continuously in blood group O+ human erythrocytes and 10% human serum in a gas mixture consisting of 7% CO2, 5% O2, and 88% N2, synchronized by serial treatments with 5% D-sorbitol. […]

[2] = system: P. falciparum clone Dd2; test: Malaria SYBR Green I-based fluorescence method, clone Dd2; assay type: cell-based; details: Plasmodium falciparum, DD2, 72 h, read-out: In vitro susceptibility (IC50) Dd2
Description: (§6) 1803-1806, Vol. 48, No. 5, with slight modifications. Drug solutions were serially diluted with culture medium and distributed to asynchronous parasite cultures in 96-well plates in quadruplicate to achieve 0.2% parasitaemia with a 2% haematocrit in a total volume of 100 μL. The plates were then incubated for 72 h at 37° C. Following incubation, 100 μL of lysis buffer with 0.2 μL/mL SYBR Green 1 was added to each well. The plates were incubated at 37° C. for 1 h in the dark and then placed in a 96-well fluorescence plate reader (Multilabel HTS Counter; PerkinElmer, Waltham, Mass., USA) with excitation and emission wavelengths at 497 nm and 520 nm, respectively, for measurement of fluorescence. The 50% inhibitory concentration (IC50) was determined by non-linear regression analysis of logistic dose—response curves using GraphPad Prism software (GraphPad Software Inc., La Jolla, Calif.). This example serves as a comparative method.
(§7) Next, the assay portion of procedure of Example 1C was performed using Coartem as a positive control.

[3] = system: P. falciparum multi-drug resistant (MDR) clone Dd2; test: In vitro growth inhibition IC50, Giemsa-stained smears (Example 1D), clone Dd2; assay type: cell-based; details: Plasmodium falciparum
Description: as §1, §2, §3, §4, §5

[4] = system: Plasmodium falciparum multidrug resistant strain (MDR) 7G8; test: In vitro growth inhibition of P. falciparum 7G8, infection rate by Giemsa-stained smear (Example 1B); assay type: cell-based; details: 7G8, read-out: Antimalarial activity, IC50
Description: The Plasmodium falciparum multidrug resistant strain (MDR) 7G8, (obtained from the Malaria Research and Reference Reagent Resource Centre (MR4), Manassas, Va., USA), was in vitro cultured in RMPI 1640 cell culture medium (supplemented with 10% Human Serum) with PCV (packed cell volume) at 5%. The P. falciparum was cell synchronized by adding 5% of D-sorbitol, and synchronized cells were then spread on culture plates after achieving ring form phase, with an initial infection rate of 1% and PCV at 5%.
as §3

[5] = system: P. falciparum clone 3D7; test: Malaria SYBR Green I-based fluorescence method, clone 3D7; assay type: cell-based; details: Plasmodium falciparum, 3D7, 72 h, read-out: In vitro susceptibility (IC50) 3D7
Description: as §6, §7

[6] = cited from earlier work; for half-life (t1/2): in humans
[7] = in vivo; cited from earlier work
[8] = system: P. falciparum drug-sensitive clone 3D7; test: In vitro inhibitory concentration assay, light microscopy of Giemsa-stained smears (Example 1C), clone 3D7; assay type: cell-based; details: Plasmodium falciparum, 10^−4 g/L, read-out: Percent of Inhibition (%, Mean ± SD) 3D7
Description: (§8) Parasite cultivation. Drug-sensitive clone 3D7 and multi-drug resistant (MDR) clone Dd2 of Plasmodium falciparum, obtained from the Malaria Research and Reference Reagent Resource Centre (MR4), Manassas, Va., USA, were maintained continuously in blood group O+ human erythrocytes and 10% human serum in a gas mixture consisting of 7% CO2, 5% O2 and 88% N2.
(§9) The stock solutions of Example 1A, and CQ employed as the positive control (prepared as a 10 mM stock solution in PBS), were stored at −20° C. Each working solution was freshly prepared in cell culture medium.
(§10) In vitro inhibitory concentration assays. P. falciparum clones 3D7 and Dd2 were maintained continuously in blood group O+ human erythrocytes and 10% human serum in a gas mixture consisting of 7% CO2, 5% O2, and 88% N2, synchronized by serial treatments with 5% D-sorbitol. In vitro growth inhibition of ring-stage-parasitized erythrocytes starting at 1% parasitemia and 2.5% hematocrit was determined by light microscopy of Giemsa-stained smears.

[9] = system: P. falciparum infection; test: Expected oral treatment of patients, standard blood film monitoring; assay type: in vivo, Plasmodium falciparum; details: patient, aqueous composition, total daily dosage up to about 500 mg of each active
[10] = system: P. falciparum DD2; test: Checkerboard assay (FIC index); assay type: cell-based, Plasmodium falciparum; details: for MIC: Plasmodium falciparum, DD2, each component used alone
Description: Checkerboard assay. The anti-malaria activity of Luohan fruit extracts and Stevia leaf extracts in vitro were determined and predicted using the malarial strain P. falciparum DD2. Samples are mixed into 1:2 series dilutions and the FIC index (FICI) is calculated. (Rand, K. H., Houck, H. J., Brown, P. et al. “Reproducibility of the microdilution checkerboard method for antibiotic synergy,” Antimicrobial Agents & Chemotherapy (1993) 37:613-5; Eliopoulos, G. M., Moellering R. C. in Antibiotics in Laboratory Medicine, ed. Lorian V (Williams & Wilkins, Baltimore, Md., 1991), pp 432-492; Ghannoum, M. A., Fu, Y., Ibrahim, A. S., Mortara, L. A., Shafiq, M. C., Edwards, J. E., Jr., Criddle, R. S. Antimicrob. Agents Chemother. (1995) 39:2459-2465; Barchiesi, F., DiFrancesco, L. F., Scalise, G. “In Vitro Activities of Terbinafine in Combination With Fluconazole and Itraconazole Against Isolates of Candida albicans With Reduced Susceptibility to Azoles,” Antimicrob. Agents Chemother. (1997) 41:1812-1814. Each of the foregoing references are incorporated herein by reference in their entirety.)
To determine whether the readout of the combination therapy is additive, synergistic, or indifferent, the FIC index (FICI) was calculated by the use of the checkerboard assay. The FICI represents the sum of the FICs of each drug tested, where the FIC (fractional inhibitory concentration) is determined for each drug by dividing the MIC of each drug when used in combination by the MIC of each drug when used alone. FICI=(MICdrug A in combination/MICdrug A alone)+(MICdrug B in combination/MICdrug B alone). The preassumptions are that (i) testing uses concentrations separated by a factor of 2, and (ii) one-dilution-step MIC changes are within the range of experimental error. Other sophisticated methods have also been used; for example, a contour surface-plot methodology was used in characterizing the nature of three antifungal agents in combinations using various concentrations of each agent.

[11] = system: P. falciparum multi-drug resistant (MDR) clone Dd2; test: In vitro inhibitory concentration assay, light microscopy of Giemsa-stained smears (Example 1C), clone Dd2; assay type: cell-based; details: Plasmodium falciparum, 10^−4 g/L, read-out: Percent of Inhibition (%, Mean ± SD) Dd2
Description: as §8, §9, §10

[12] = cited from earlier work
[13] = Example 2E (control): artemesinin with Reb A

For CCN(CC)CCCC(C)Nc1ccnc2cc(Cl)ccc12 (centres unmarked) [CQ, chloroquine], the IC50 ([1]; 3D7, read-out: IC50, av. 3D7 (DS)) was 1.37 ± 0.12 nM, the IC50 [2] was 22.1 ± 1.96 nM and the IC50 ([3]; DD2, read-out: IC50, av. Dd2 (MDR)) was 22.6 ± 0.82 nM. The IC50 [4] was 0.264 ± 0.012 µg/mL (≈ 0.825 µM) and the IC50 [5] was 1.63 ± 0.1 nM.

In the case of C=C1C[C@@]23CC[C@H]4[C@@](C)(CCC[C@@]4(C)C(=O)O[C@@H]4O[C@H](CO)[C@@H](O)[C@H](O)[C@H]4O)[C@@H]2CC[C@]1(O[C@@H]1O[C@H](CO)[C@@H](O)[C@H](O)[C@H]1O[C@@H]1O[C@H](CO)[C@@H](O)[C@H](O)[C@H]1O)C3 [stevioside], the “half-life (t1/2)” value [6] is given as “approximately 14 hours”.

For CCCCN(CCCC)CC(O)c1cc(Cl)cc2c1-c1ccc(Cl)cc1/C2=C/c1ccc(Cl)cc1 (racemic) [lumefantrine, (+/−)-2-dibutylamino-1-[2,7-dichloro-9-(4-chlorobenzylidene)-9,11-fluoren-4-yl]ethanol], the elimination [7] is given as “eliminated more slowly”.

In the case of C=C1C[C@@]23CC[C@H]4[C@@](C)(CCC[C@@]4(C)C(=O)OC4OC(CO)C(O)C(O)C4O)[C@@H]2CC[C@]1(OC1OC(CO)C(O)C(OC2OC(CO)C(O)C(O)C2O)C1OC1OC(CO)C(O)C(O)C1O)C3 (stereo partly drawn) [Sample No. 1, (14α)-13-[(2-O-β-D-glucopyranosyl-3-O-β-D-glucopyranosyl-β-D-glucopyranosyl)oxy]kaur-16-en-19-oic acid β-D-glucopyranosyl ester], the inhibition at 0.1 µg/mL [8] is given as 41.3%, the “expected time until P. falciparum infection is suppressed or inhibited” value [9] is given as 3 to 7 days and the “adverse hemodynamic effects or blood glucose lowering effects” value ([6]; at the dosages used herein) is given as “does not exhibit adverse hemodynamic effects or blood glucose lowering effects”. For the same compound, the “half-life (t1/2)” value [6] was “approximately 14 hours”, the MIC in combination ([10]; Example 2D: compound A with Reb A) was 94 nM and the MIC in combination [10, 13] was 376 nM. It also gave an MIC [10] of 376 nM, an IC50 ([1]; clone 3D7 (DS), Giemsa smear, read-out: IC50, av. 3D7 (DS)) of 220 ± 10.2 nM and an IC50 ([3]; clone Dd2 (MDR), Giemsa smear, read-out: IC50, av. Dd2 (MDR)) of 376 ± 12.4 nM. For the same compound, the inhibition at 0.1 µg/mL [11] was 56.1 ± 1.36% and the solubility in water [12] was “fully water soluble”.

In the case of C[C@@H]1CC[C@H]2[C@@H](C)C(=O)O[C@@H]3O[C@@]4(C)CC[C@@H]1[C@]32OO4 [Artemisinin, reference compound], the MIC in combination [10, 13] is listed as 0.0081 nM, the MIC [10] is listed as 0.13 nM and the solubility in water [12] is listed as “poorly soluble in water”.

For C[C@H](CC[C@@H](OC1OC(COC2OC(CO)C(O)C(O)C2O)C(O)C(O)C1OC1OC(CO)C(O)C(O)C1O)C(C)(C)O)[C@H]1CC[C@@]2(C)[C@@H]3CC=C4[C@@H](CC[C@H](OC5OC(COC6OC(CO)C(O)C(O)C6O)C(O)C(O)C5O)C4(C)C)[C@]3(C)[C@H](O)C[C@]12C (stereo partly drawn) [mogroside V, (3β,9β,10α,11α,24R)-3-[(6-O-β-D-glucopyranosyl-β-D-glucopyranosyl)oxy]-11,25-dihydroxy-9-methyl-19-norlanost-5-en-24-yl-O-β-D-glucopyranosyl-(1-2)-O-[β-D-glucopyranosyl-(1-6)]-β-D-glucopyranoside], the solubility in water [12] is listed as “fully water soluble”.

In the case of CO[C@H]1O[C@@H]2O[C@@]3(C)CC[C@H]4[C@H](C)CC[C@@H]([C@H]1C)[C@@]24OO3 [Artemether, artemether], the elimination [7] is listed as “rapidly eliminated”.
